According to ChEMBL document CHEMBL3813672, “Discovery of anti-cancer activity for benzo[1,2,4]triazin-7-ones: Very strong correlation to pleurotin and thioredoxin reductase inhibition” (Bioorg Med Chem, 2016):

Columns and labels:
[1] = Growth inhibition of human MOLT4 cells assessed as cell growth at 10 uM incubated for 48 hrs by sulforhodamine B assay relative to control; format: functional; conditions: MOLT-4, 48 h, read-out: Activity
SR = test: Growth inhibition of human SR cells assessed as cell growth at 10 uM incubated for 48 hrs by sulforhodamine B assay relative to control; format: functional; conditions: read-out: Activity
A549 = test: Growth inhibition of human A549/ATCC cells assessed as cell growth at 10 uM incubated for 48 hrs by sulforhodamine B assay relative to control; format: functional; conditions: A549, 48 h, read-out: Activity
[2] = Growth inhibition of human HOP62 cells assessed as cell growth at 10 uM incubated for 48 hrs by sulforhodamine B assay relative to control; format: functional; conditions: HOP-62, 48 h, read-out: Activity
NCI-H23 = test: Growth inhibition of human NCI-H23 cells assessed as cell growth at 10 uM incubated for 48 hrs by sulforhodamine B assay relative to control; format: functional; conditions: NCI-H23, 48 h, read-out: Activity
NCI-H460 [3] = test: Growth inhibition of human NCI-H460 cells assessed as cell growth at 10 uM incubated for 48 hrs by sulforhodamine B assay relative to control; format: functional; conditions: NCI-H460, 48 h, read-out: Activity
NCI-H522 = test: Growth inhibition of human NCI-H522 cells assessed as cell growth at 10 uM incubated for 48 hrs by sulforhodamine B assay relative to control; format: functional; conditions: NCI-H522, 48 h, read-out: Activity
[4] = Growth inhibition of human HCC2998 cells assessed as cell growth at 10 uM incubated for 48 hrs by sulforhodamine B assay relative to control; format: functional; conditions: HCC 2998, 48 h, read-out: Activity
[5] = Growth inhibition of human HCT15 cells assessed as cell growth at 10 uM incubated for 48 hrs by sulforhodamine B assay relative to control; format: functional; conditions: HCT-15, 48 h, read-out: Activity
KM12 = test: Growth inhibition of human KM12 cells assessed as cell growth at 10 uM incubated for 48 hrs by sulforhodamine B assay relative to control; format: functional; conditions: KM12, 48 h, read-out: Activity
[6] = Cytotoxicity against human GM00637 cells assessed as reduction in cell viability after 72 hrs by MTT assay; format: cell-based; conditions: GM00637, 72 h
MCF7 [7] = test: Cytotoxicity against human MCF7 cells assessed as reduction in cell viability after 72 hrs by MTT assay; format: functional, cell-based; conditions: MCF7, 72 h
[8] = Growth inhibition of human SF268 cells assessed as cell growth at 10 uM incubated for 48 hrs by sulforhodamine B assay relative to control; format: functional; conditions: SF-268, 48 h, read-out: Activity
[9] = Growth inhibition of human SF539 cells assessed as cell growth at 10 uM incubated for 48 hrs by sulforhodamine B assay relative to control; format: functional; conditions: SF-539, 48 h, read-out: Activity
[10] = Growth inhibition of human SNB19 cells assessed as cell growth at 10 uM incubated for 48 hrs by sulforhodamine B assay relative to control; format: functional; conditions: SNB-19, 48 h, read-out: Activity
U-251 [11] = test: Growth inhibition of human U251 cells assessed as cell growth at 10 uM incubated for 48 hrs by sulforhodamine B assay relative to control; format: functional; conditions: U-251, 48 h, read-out: Activity
M14 = test: Growth inhibition of human M14 cells assessed as cell growth at 10 uM incubated for 48 hrs by sulforhodamine B assay relative to control; format: functional; conditions: M14, 48 h, read-out: Activity
SK-MEL-28 = test: Growth inhibition of human SK-MEL-28 cells assessed as cell growth at 10 uM incubated for 48 hrs by sulforhodamine B assay relative to control; format: functional; conditions: SK-MEL-28, 48 h, read-out: Activity
[12] = Growth inhibition of human UACC257 cells assessed as cell growth at 10 uM incubated for 48 hrs by sulforhodamine B assay relative to control; format: functional; conditions: UACC-257, 48 h, read-out: Activity
[13] = Growth inhibition of human OVCAR4 cells assessed as cell growth at 10 uM incubated for 48 hrs by sulforhodamine B assay relative to control; format: functional; conditions: OVCAR-4, 48 h, read-out: Activity
[14] = Growth inhibition of human OVCAR5 cells assessed as cell growth at 10 uM incubated for 48 hrs by sulforhodamine B assay relative to control; format: functional; conditions: OVCAR-5, 48 h, read-out: Activity
NCI/ADR-RES = test: Growth inhibition of human NCI/ADR-RES cells assessed as cell growth at 10 uM incubated for 48 hrs by sulforhodamine B assay relative to control; format: functional; conditions: read-out: Activity
[15] = Growth inhibition of human SKOV3 cells assessed as cell growth at 10 uM incubated for 48 hrs by sulforhodamine B assay relative to control; format: functional; conditions: SK-OV-3, 48 h, read-out: Activity
A498 = test: Growth inhibition of human A498 cells assessed as cell growth at 10 uM incubated for 48 hrs by sulforhodamine B assay relative to control; format: functional; conditions: A498, 48 h, read-out: Activity
[16] = Growth inhibition of human UO31 cells assessed as cell growth at 10 uM incubated for 48 hrs by sulforhodamine B assay relative to control; format: functional; conditions: UO-31, 48 h, read-out: Activity
[17] = Growth inhibition of human DU145 cells assessed as cell growth at 10 uM incubated for 48 hrs by sulforhodamine B assay relative to control; format: functional; conditions: DU-145, 48 h, read-out: Activity
MCF7 [18] = test: Growth inhibition of human MCF7 cells assessed as cell growth at 10 uM incubated for 48 hrs by sulforhodamine B assay relative to control; format: functional; conditions: MCF7, 48 h, read-out: Activity
[19] = Growth inhibition of human Hs 578T cells assessed as cell growth at 10 uM incubated for 48 hrs by sulforhodamine B assay relative to control; format: functional; conditions: read-out: Activity
[20] = Growth inhibition of human BT549 cells assessed as cell growth at 10 uM incubated for 48 hrs by sulforhodamine B assay relative to control; format: functional; conditions: BT-549, 48 h, read-out: Activity
SN12C = test: Growth inhibition of human SN12C cells assessed as cell growth at 10 uM incubated for 48 hrs by sulforhodamine B assay relative to control; format: functional; conditions: read-out: Activity
U-251 [21] = test: Growth inhibition of human U251 cells incubated for 48 hrs by sulforhodamine B assay; format: functional; conditions: U-251, 48 h
[22] = Growth inhibition of human LOXIMVI cells incubated for 48 hrs by sulforhodamine B assay; format: functional; conditions: LOX IMVI
MCF7 [23] = test: Growth inhibition of human MCF7 cells incubated for 48 hrs by sulforhodamine B assay; format: functional; conditions: MCF7, 48 h
[24] = Growth inhibition of human HOP92 cells incubated for 48 hrs by sulforhodamine B assay; format: functional; conditions: HOP-92, 48 h
NCI-H460 [25] = test: Growth inhibition of human NCI-H460 cells incubated for 48 hrs by sulforhodamine B assay; format: functional; conditions: NCI-H460, 48 h
[26] = read-out: pLC50 (the source's name) (converted)

Molecule `O=c1ccc2nc(-c3ccccc3)nn(-c3ccccc3)c-2c1` has a growth at 10 µM [1] of -37.6%, a growth at 10 µM (SR) of -20.2% and a growth at 10 µM (A549) of 73.6%. For the same molecule, the growth at 10 µM [2] was 69.5%, the growth at 10 µM (NCI-H23) was 54.4% and the growth at 10 µM (NCI-H460 [3]) was 61.5%. For the same molecule, the growth at 10 µM (NCI-H522) was -90.5%, the growth at 10 µM [4] was 100% and the growth at 10 µM [5] was -75.9%. It also gave a growth at 10 µM (KM12) of 63.1%, an IC50 [6] of 0.23 µM and an IC50 (MCF7 [7]) of 0.81 µM. It also gave a growth at 10 µM [8] of 70.5%, a growth at 10 µM [9] of 105% and a growth at 10 µM [10] of 76%. For the same molecule, the growth at 10 µM (U-251 [11]) was 66.2%, the growth at 10 µM (M14) was 51.2% and the growth at 10 µM (SK-MEL-28) was 26.4%. The growth at 10 µM [12] was -97.3%, the growth at 10 µM [13] was -40.6% and the growth at 10 µM [14] was 102%. The growth at 10 µM (NCI/ADR-RES) was 96.2%, the growth at 10 µM [15] was 59.1% and the growth at 10 µM (A498) was 84.4%. For the same molecule, the growth at 10 µM [16] was -97.5%, the growth at 10 µM [17] was -95.5% and the growth at 10 µM (MCF7 [18]) was -66.7%. For the same molecule, the growth at 10 µM [19] was 75.9%, the growth at 10 µM [20] was 90.2% and the growth at 10 µM (SN12C) was 40.2%.
Molecule `O=c1ccc2nc(C(F)(F)F)nn(-c3ccccc3)c-2c1` has a growth at 10 µM [1] of -20.5%, a growth at 10 µM (SR) of -11.3% and a growth at 10 µM (A549) of 93%. The growth at 10 µM [2] was 66%, the growth at 10 µM (NCI-H23) was 67.7% and the growth at 10 µM (NCI-H460 [3]) was 97.3%. For the same molecule, the growth at 10 µM (NCI-H522) was -56%, the growth at 10 µM [4] was 102% and the growth at 10 µM [5] was -79.7%. For the same molecule, the growth at 10 µM (KM12) was 96.8%, the GI50 (U-251 [21]) was 13.5 µM and the CC50 (U-251 [21]; [26]) was 60.3 µM. It also gave a TGI (U-251 [21]; read-out: pTGI (converted)) of 28.8 µM, a GI50 [22] of 1.58 µM and a CC50 [22, 26] of 6.61 µM. For the same molecule, the TGI ([22]; read-out: pTGI (converted)) was 3.24 µM, the GI50 (MCF7 [23]) was 0.49 µM and the CC50 (MCF7 [23]; [26]) was greater than 100 µM. For the same molecule, the TGI (MCF7 [23]; read-out: pTGI (converted)) was 4.07 µM, the IC50 [6] was 1.61 µM and the IC50 (MCF7 [7]) was 0.6 µM. For the same molecule, the growth at 10 µM [8] was 77.4%, the growth at 10 µM [9] was 92.8% and the growth at 10 µM [10] was 93.5%. For the same molecule, the growth at 10 µM (U-251 [11]) was 69.7%, the growth at 10 µM (M14) was 62.1% and the growth at 10 µM (SK-MEL-28) was 35.7%. For the same molecule, the growth at 10 µM [12] was 35.6%, the growth at 10 µM [13] was 79.8% and the growth at 10 µM [14] was 102%. It also gave a growth at 10 µM (NCI/ADR-RES) of 84%, a growth at 10 µM [15] of 79.3% and a growth at 10 µM (A498) of 79.9%. For the same molecule, the growth at 10 µM [16] was 24%, the growth at 10 µM [17] was 40.5% and the growth at 10 µM (MCF7 [18]) was -49.3%. The growth at 10 µM [19] was 74%, the growth at 10 µM [20] was 69.2% and the GI50 [24] was 1.38 µM. For the same molecule, the CC50 [24, 26] was 6.17 µM, the TGI ([24]; read-out: pTGI (converted)) was 2.95 µM and the GI50 (NCI-H460 [25]) was 17.8 µM. For the same molecule, the CC50 (NCI-H460 [25]; [26]) was 74.1 µM, the TGI (NCI-H460 [25]; read-out: pTGI (converted)) was 36.3 µM and the growth at 10 µM (SN12C) was 67.9%.
